Measured values from PMC6164331, “Synthesis, Evaluation for Cytotoxicity and Molecular Docking Studies of Benzo[c]furan-Chalcones for Potential to Inhibit Tubulin Polymerization and/or EGFR-Tyrosine Kinase Phosphorylation” (International Journal of Molecular Sciences, 2018).
Like-named read-outs stand apart in the source and are kept apart here. Starred links: 1 amine or outer side, 2 acyl side, 3 side chain; linkers in the order of their positions; H or OH if unused. Positions of bridges follow the written chain, without caps; N, C: chain ends. Non-standard residues stand in square brackets, D forms with d. Residues, ends and D or L forms follow the SMILES beside them. Chains are numbered I, II in the order given. Actinocin(9to1) = Cc1c2oc3c(C)ccc(C(=O)[*:1])c3nc-2c(C(=O)[*:2])c(N)c1=O; NMeV = CN[C@H](C(=O)O)C(C)C; Sar = CNCC(=O)O

Key:
tubulin = tubulin (Sus scrofa, UniProt P02550+P02554); experiment: Cell-free tubulin polymerization assay; format: biochemical; details: for IC50: colchicine as positive control, read-out: IC50 against tubulin polymerization; for inhibitory effect against tubulin polymerization (in words): compared to colchicine or to the other derivatives of the series
tubulin, sequence (P02550 whole entry): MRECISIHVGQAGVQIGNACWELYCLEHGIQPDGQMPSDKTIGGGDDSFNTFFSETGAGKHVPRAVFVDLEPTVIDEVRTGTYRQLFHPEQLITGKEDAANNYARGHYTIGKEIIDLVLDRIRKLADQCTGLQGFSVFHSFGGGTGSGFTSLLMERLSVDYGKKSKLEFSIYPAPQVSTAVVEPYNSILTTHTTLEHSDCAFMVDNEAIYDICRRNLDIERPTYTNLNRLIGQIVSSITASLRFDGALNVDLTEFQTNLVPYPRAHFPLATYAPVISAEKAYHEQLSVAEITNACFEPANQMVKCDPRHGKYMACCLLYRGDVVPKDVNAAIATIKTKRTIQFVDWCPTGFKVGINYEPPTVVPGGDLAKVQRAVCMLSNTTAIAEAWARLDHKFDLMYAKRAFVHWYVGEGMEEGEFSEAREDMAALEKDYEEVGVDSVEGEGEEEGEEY
tubulin, sequence (P02554 whole entry): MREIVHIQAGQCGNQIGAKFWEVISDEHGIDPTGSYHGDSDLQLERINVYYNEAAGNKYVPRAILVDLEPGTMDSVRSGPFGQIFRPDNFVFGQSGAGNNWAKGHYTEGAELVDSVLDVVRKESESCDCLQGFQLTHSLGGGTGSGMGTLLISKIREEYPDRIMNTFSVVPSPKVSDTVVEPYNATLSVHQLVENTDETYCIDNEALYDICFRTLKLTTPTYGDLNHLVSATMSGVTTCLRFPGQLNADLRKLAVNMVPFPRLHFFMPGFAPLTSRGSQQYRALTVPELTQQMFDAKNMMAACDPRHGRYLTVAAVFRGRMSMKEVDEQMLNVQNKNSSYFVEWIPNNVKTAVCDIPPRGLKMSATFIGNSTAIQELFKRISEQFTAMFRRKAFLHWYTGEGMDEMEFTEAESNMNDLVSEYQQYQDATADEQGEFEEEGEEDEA
Protocol: Tubulin polymerization assays were carried out using the tubulin polymerization assay kit (Cytoskeleton, Inc., Denver, CO, USA) following the instruction by the manufacturer.

MCF-7 cell line = experiment: MTT cytotoxicity assay against the MCF-7 cell line; details: for IC50: read-out: MCF-7 Cell Line IC50 (μM) ± SD; for cytotoxicity against MCF-7 cells (in words): compared to actinomycin D
Protocol: The human breast cancer (MCF-7) cell line was maintained in culture flasks containing Dulbecco’s Modified Eagles Medium (DMEM). The media was supplemented with 1% antibiotics (100 µg/mL penicillin, 100 µg/mL streptomycin and 250 µg/L fungizone) and 10% heat-inactivated fetal bovine serum. […] The cells were sub-cultured every two-to-three days after the cells had formed a confluent monolayer.
The compounds were assessed at 0–100 µM. The control wells included vehicle treated cells exposed to 2% DMSO and the positive control, actinomycin D, with concentrations ranging between 5, 10, 25, and 50, and 100 µM. The microtitre plates were incubated for 48 h. After the 48 h incubation period the MTT reagent (10 µL) was added to a final concentration of 0.5 mg/mL and the plate was further incubated for another 4 h. After 4 h, 100 µL of the solubilisation solution was added to each well and the plate was allowed to stand overnight. Subsequently, the absorbance of the color complex was read at 550 nm with a reference wavelength set at 650 nm using a BIO-TEK Power-Wave XS multi-well plate reader (BioTech Instruments, Midrand, South Africa). The IC50 values of the compounds were calculated using OriginPro software (OriginLab Corporation, Northampton, MA, USA).

EGFR-TK = target: T1, EGFR-TK (Homo sapiens, UniProt P00533); experiment: EGFR-TK phosphorylation inhibition assay (ELISA); format: biochemical; details: purified EGFR
T1 construct: purchased Sigma-Aldrich, Bradford, UK
T1 sequence (P00533 25-1210): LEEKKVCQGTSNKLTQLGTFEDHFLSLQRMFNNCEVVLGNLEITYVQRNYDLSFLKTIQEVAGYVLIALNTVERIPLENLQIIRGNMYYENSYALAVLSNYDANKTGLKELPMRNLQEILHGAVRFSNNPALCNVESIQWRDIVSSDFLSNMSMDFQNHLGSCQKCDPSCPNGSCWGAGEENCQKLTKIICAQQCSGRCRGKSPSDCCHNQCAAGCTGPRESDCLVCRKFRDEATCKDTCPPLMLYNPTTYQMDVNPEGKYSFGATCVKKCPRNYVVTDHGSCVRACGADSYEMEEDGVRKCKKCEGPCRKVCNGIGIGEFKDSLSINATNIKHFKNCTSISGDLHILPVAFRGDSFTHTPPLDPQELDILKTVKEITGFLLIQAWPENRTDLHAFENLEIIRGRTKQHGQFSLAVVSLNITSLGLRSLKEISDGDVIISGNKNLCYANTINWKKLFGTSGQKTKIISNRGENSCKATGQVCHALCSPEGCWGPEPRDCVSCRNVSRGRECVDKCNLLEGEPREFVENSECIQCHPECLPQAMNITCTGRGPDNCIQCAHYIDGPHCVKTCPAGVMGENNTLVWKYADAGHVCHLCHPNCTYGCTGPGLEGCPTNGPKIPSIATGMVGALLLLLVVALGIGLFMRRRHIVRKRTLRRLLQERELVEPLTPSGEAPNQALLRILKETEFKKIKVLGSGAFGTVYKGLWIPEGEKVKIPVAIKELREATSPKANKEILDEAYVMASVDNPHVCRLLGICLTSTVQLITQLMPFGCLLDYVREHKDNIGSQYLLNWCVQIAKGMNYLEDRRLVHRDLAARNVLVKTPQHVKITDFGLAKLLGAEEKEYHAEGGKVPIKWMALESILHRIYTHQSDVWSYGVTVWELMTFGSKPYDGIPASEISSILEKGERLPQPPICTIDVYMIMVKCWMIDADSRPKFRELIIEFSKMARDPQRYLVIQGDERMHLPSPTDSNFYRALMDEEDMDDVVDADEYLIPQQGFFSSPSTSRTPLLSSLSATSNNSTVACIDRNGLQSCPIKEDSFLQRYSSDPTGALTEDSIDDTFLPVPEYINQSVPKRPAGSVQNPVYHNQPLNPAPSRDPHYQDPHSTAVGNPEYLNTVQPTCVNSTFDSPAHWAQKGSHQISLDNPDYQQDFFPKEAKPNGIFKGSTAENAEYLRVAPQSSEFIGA
Protocol: The procedure was carried out according to the manufacturer’s protocol and referring to reported instructions as described in our previous investigation.

MCF-7 cells = experiment: Annexin V-Cy3 SYTOX staining apoptosis assay (flow cytometry); format: cell-based, human; details: for viability at 1 µM: Homo sapiens, read-out: %Viable Cells (Q3)
Text: Several distinctive modes of cell death such as apoptosis, necrosis, autophagy, and cornification exist and are characterized by differences in their morphology and their biochemical changes. […] We employed the Annexin V-Cy3 SYTOX apoptosis assay kit to distinguish between viable cells (Annexin V-negative; PI-negative), early apoptotic cells (Annexin V-positive; PI-negative), late apoptotic cells (Annexin V-positive; PI-positive) and unviable or necrotic cells (Annexin V-negative; PI-positive). The cells were analyzed by the flow cytometry, which is an important tool to evaluate the molecular and morphological events that take place during cell death and cell proliferation.
The percentage population of apoptotic cells were determined using Annexin V–Cy3 SYTOX apoptosis detection kit (Abcam, Milton, Cambridge, UK) according to the manufacturer’s instructions. […] The cells were incubated for 48 h and then stained with Annexin V–Cy3 SYTOX green dye. The cells were analyzed using BD Biosciences FACSAria III flow cytometer (BD Biosciences, San Jose, CA, USA).

Caspase-3 (Asp175) = experiment: Caspase-3 activation colorimetric assay in MCF-7 cells; format: cell-based, human; details: 1 µM, 24 h, compared to 3i and actinomycin D
Protocol: Activation of caspases (caspase-2, 3, 6, 7, 8, 9, and 10) is a major biochemical feature that plays a central role in the morphological changes associated with apoptosis. Consequently, we evaluated compounds 3b and 3i for their potential to induce caspase-3 activation in the MCF-7 cells.
Caspase-3 activity was detected by means of Caspase-3 Colorimetric Assay Kit (Abcam, Cambridge, MA, USA). The cells were cultured in 24 well plates and treated for 24 h with 3b or 3i at a concentration of 1 µM against actinomycin D (1 µM) as a reference standard, respectively. The cells were then washed with PBS buffer and lysed on ice. The experiments were carried out according to the manufacturer’s instructions. Optical density was measured at absorbance of 450 nm using the BioTek microplate reader. The concentration of active Caspase-3 (Asp 175) were measured in duplicates and interpolated from the active caspase-3 (Asp 175) standard curve and corrected for sample dilution.

[1] = MTT, 48 h incubation, three individual experiments

Compound	IC50 (tubulin) [µM]	melting point [°C]	IC50 (MCF-7 cell line; Homo sapiens, MCF7, 48 h) [µM]	also measured
COc1ccc(-c2cc3cc(Br)cc(C(=O)/C=C/c4ccc(Cl)cc4)c3o2)cc1 [3w]	48.4	209 to 210	30.6 ± 0.35	–
O=C(/C=C/c1ccc(F)cc1)c1cc(Br)cc2cc(-c3cccc(F)c3)oc12 [3l]	3.98	266 to 267	> 100	cytotoxicity against MCF-7 cells (in words) (MCF-7 cell line; MTT): inactive
COc1ccc(-c2cc3cc(Br)cc(C(=O)/C=C/c4ccccc4)c3o2)cc1 [3u]	–	255 to 256	48.96 ± 0.3	–
O=C(/C=C/c1ccccc1)c1cc(Br)cc2cc(-c3cccc(Cl)c3)oc12 [3p]	0.0937	218 to 219	12.6 ± 0.23	inhibitory effect against tubulin polymerization (in words) (tubulin): significant inhibitory effects; IC50 (EGFR-TK): 0.17 ± 0.06 µM
O=C(/C=C/c1ccc(OC(F)(F)F)cc1)c1cc(Br)cc2cc(-c3cccc(F)c3)oc12 [3o, (E)-1-(5-Bromo-2-(3-fluorophenyl)benzofuran-7-yl)-3-(4-(trifluoromethoxy)phenyl)prop-2-en-1-one]	0.000176	186 to 187	7.87 ± 0.25	IC50 (EGFR-TK): 0.12 ± 0.04 µM
O=C(/C=C/c1ccc(F)cc1)c1cc(Br)cc2cc(-c3cccc(Cl)c3)oc12 [3q]	51.3	232 to 233	23.8 ± 0.29	–
O=C(/C=C/c1ccc(OC(F)(F)F)cc1)c1cc(Br)cc2cc(-c3ccccc3)oc12 [3e]	–	–	0.59 ± 0.21	–
O=C(/C=C/c1ccccc1)c1cc(Br)cc2cc(-c3ccc(F)cc3)oc12 [3f]	23.3	224 to 226	35.8 ± 1.2	–
O=C(/C=C/c1ccc(Cl)cc1)c1cc(Br)cc2cc(-c3ccc(F)cc3)oc12 [3h]	1.33	231 to 233	54.16 ± 0.4	cytotoxicity against MCF-7 cells (in words) (MCF-7 cell line; MTT): reduced cytotoxicity
COc1ccc(-c2cc3cc(Br)cc(C(=O)/C=C/c4ccc(F)cc4)c3o2)cc1 [3v]	0.0162	241 to 242	28.4 ± 0.46	IC50 (EGFR-TK): 0.15 ± 0.02 µM
O=C(/C=C/c1ccc(OC(F)(F)F)cc1)c1cc(Br)cc2cc(-c3ccc(F)cc3)oc12 [3j]	0.00885	–	–	IC50 (MCF-7 cell line; [1]): 16 ± 0.62 µM
O=C(/C=C/c1ccc(OC(F)(F)F)cc1)c1cc(Br)cc2cc(-c3cccc(Cl)c3)oc12 [3t]	2.83	–	–	IC50 (MCF-7 cell line; [1]): 26.6 ± 0.27 µM
O=C(/C=C/c1ccc(F)cc1)c1cc(Br)cc2cc(-c3ccccc3)oc12 [3b]	26.5	–	0.55 ± 0.24	viability at 1 µM (MCF-7 cells; MCF7, MCF-7 cells, 1 µM, 48 h): 23.3%; %Early Apoptosis (Q4) (MCF-7 cells; MCF-7 cells, 1 µM, 48 h): 1.5%; %Late Apoptosis (Q2) (MCF-7 cells; MCF-7 cells, 1 µM, 48 h): 72%; %Necrosis (Q1) (MCF-7 cells; MCF-7 cells, 1 µM, 48 h): 3.2%; induction of apoptosis (in words) (MCF-7 cells; MCF-7 cells, 1 µM, 48 h, compared to 3i and actinomycin D): induced increased apoptosis; caspase-3 activation (in words) (Caspase-3 (Asp175)): does not induce significant caspase activation; IC50 (EGFR-TK): 0.17 ± 0.03 µM
COc1ccc(/C=C/C(=O)c2cc(Br)cc3cc(-c4ccc(F)cc4)oc23)cc1 [3i, (E)-1-(5-Bromo-2-(4-fluorophenyl)benzofuran-7-yl)-3-(4-methoxyphenyl)prop-2-en-1-one]	5.51e-05	–	0.000355	viability at 1 µM (MCF-7 cells; MCF7, MCF-7 cells, 1 µM, 48 h): 32.2%; %Early Apoptosis (Q4) (MCF-7 cells; MCF-7 cells, 1 µM, 48 h): 3.1%; %Late Apoptosis (Q2) (MCF-7 cells; MCF-7 cells, 1 µM, 48 h): 61.7%; %Necrosis (Q1) (MCF-7 cells; MCF-7 cells, 1 µM, 48 h): 3.1%; IC50 (EGFR-TK): 0.09 ± 0.03 µM
O=C(/C=C/c1ccccc1)c1cc(Br)cc2cc(-c3ccccc3)oc12 [3a]	15.6	–	48 ± 2.1	–
O=C(/C=C/c1ccc(Cl)cc1)c1cc(Br)cc2cc(-c3cccc(Cl)c3)oc12 [3r]	34.5	257 to 258	66.8 ± 0.84	–
O=C(/C=C/c1ccccc1)c1cc(Br)cc2cc(-c3cccc(F)c3)oc12 [3k]	77	243 to 245	23 ± 0.38	–
COc1ccc(/C=C/C(=O)c2cc(Br)cc3cc(-c4cccc(Cl)c4)oc23)cc1 [3s]	0.71	214 to 215	2.69 ± 0.23	inhibitory effect against tubulin polymerization (in words) (tubulin): significant inhibitory effects
COc1ccc(/C=C/C(=O)c2cc(Br)cc3cc(-c4ccc(OC)cc4)oc23)cc1 [3x]	67.4	216 to 217	69.1 ± 0.76	–
COc1ccc(/C=C/C(=O)c2cc(Br)cc3cc(-c4cccc(F)c4)oc23)cc1 [3n]	–	221 to 222	39.2 ± 0.42	inhibitory effect against tubulin polymerization (in words) (tubulin): Moderate activity
O=C(/C=C/c1ccc(Cl)cc1)c1cc(Br)cc2cc(-c3ccccc3)oc12 [3c]	26.4	242 to 245	> 100	–
O=C(/C=C/c1ccc(Cl)cc1)c1cc(Br)cc2cc(-c3cccc(F)c3)oc12 [3m]	10.2	234 to 235	14.8 ± 0.33	–
O=C(/C=C/c1ccc(F)cc1)c1cc(Br)cc2cc(-c3ccc(F)cc3)oc12 [3g]	13.2	239 to 242	48.6 ± 2.1	cytotoxicity against MCF-7 cells (in words) (MCF-7 cell line; MTT): reduced cytotoxicity
Cc1c2oc3c(C)ccc(C(=O)N[C@@H]4C(=O)N[C@H](C(C)C)C(=O)N5CCC[C@H]5C(=O)N(C)CC(=O)N(C)[C@@H](C(C)C)C(=O)O[C@@H]4C)c3nc-2c(C(=O)N[C@@H]2C(=O)N[C@H](C(C)C)C(=O)N3CCC[C@H]3C(=O)N(C)CC(=O)N(C)[C@@H](C(C)C)C(=O)O[C@@H]2C)c(N)c1=O [Actinomycin D, reference compound] (I: T[dV]P[Sar][NMeV] / II: T[dV]P[Sar][NMeV]; ester I:1-I:C, II:1-II:C; linker I:N-II:N via Actinocin(9to1))	–	–	37.8 ± 1.3	viability at 1 µM (MCF-7 cells; MCF7, 48 h): 30.7%; %Early Apoptosis (Q4) (MCF-7 cells; MCF-7 cells, 1 µM, 48 h): 3.4%; %Late Apoptosis (Q2) (MCF-7 cells; MCF-7 cells, 1 µM, 48 h): 61.4%; %Necrosis (Q1) (MCF-7 cells; MCF-7 cells, 1 µM, 48 h): 4.5%; IC50 (EGFR-TK): 0.04 ± 0.03 µM
COc1ccc(-c2cc3cc(Br)cc(C(=O)/C=C/c4ccc(OC(F)(F)F)cc4)c3o2)cc1 [3y]	78	187 to 188	43.17 ± 0.28	–
COc1ccc(/C=C/C(=O)c2cc(Br)cc3cc(-c4ccccc4)oc23)cc1 [3d]	34.5	206 to 208	22.8 ± 0.86	–
